This is an account of results in ChEMBL document CHEMBL1201862, “PubChem BioAssay data set” (2004).

Assay in all cases: NCI tumour cell line growth inhibition, 48 h
The test system of assay [1] is BT-549.
Assay [2] deals with CAKI-1.
For assay [3], the system named is EKVX.
The subject of assay [4] is HCC 2998.
For assay [5], the system named is HCT-15.
In assay [6] the test system is HT-29.
Assay [7] relates to LOX IMVI.
Assay [8] has as its system M14.
In assay [9] the test system is MDA-N.
Assay [10] relates to NCI-H23.
The subject of assay [11] is NCI/ADR-RES.
Assay [12] has as its system SF-268.
The subject of assay [13] is SK-MEL-28.
In assay [14] the test system is SR.
Assay [15] relates to UACC-257.
The test system of assay [16] is UO-31.
Assay [17] deals with IGROV-1.
The test system of assay [18] is K562.
The subject of assay [19] is MCF7.
Assay [20] relates to MOLT-4.

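Assay format: 96-well plates, 48-hour exposure. The concentration for 50% growth inhibition is given as GI50.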 Active and inactive are the calls of the source. No stated cut-off is given here; in the data, active = GI50 up to about 1.1 µM and inactive = higher. Residues, ends and D or L forms follow the SMILES beside them. Groups on a side chain read outwards from the residue. *: point of attachment. Cbz = O=C(OCc1ccccc1)*; Boc = CC(C)(C)OC(=O)*

On to `CCN(CCCN(CC)C(=O)N[C@@H](Cc1ccccc1)C(=O)NC)C(=O)N[C@@H](Cc1ccccc1)C(=O)NC`, for which the GI50 was > 100 µM (inactive) in assay [1]; > 100 µM (inactive) in [2]; > 100 µM (inactive) in assay [3]; > 100 µM (inactive) in assay [4]; over 100 µM in assay [5]; > 100 µM (inactive) in [6]. Moreover, the GI50 in assay [7], in [8], in [9], in assay [10], in [11] and in assay [12] was > 100 µM (inactive) in each case. The GI50 in assay [13], in assay [14], in assay [15] and in [16] was > 100 µM (inactive) in each case.

`O=C(n1c(=O)n(-c2ccc([N+](=O)[O-])cc2)c(=O)n1C(=O)C(Cl)(Cl)Cl)C(Cl)(Cl)Cl`: the GI50 was > 100 µM (inactive) in assay [1]; > 100 µM (inactive) in [2]; > 100 µM (inactive) in assay [3]; > 100 µM (inactive) in [4]; over 100 µM in assay [5]; > 100 µM (inactive) in assay [6]. Moreover, the GI50 in assay [17] was > 100 µM (inactive); in [18], > 10 µM (inactive); in [7] it was > 100 µM (inactive); in assay [8] it was > 100 µM (inactive); in assay [19], 87.3 µM (inactive); in [9] it was > 100 µM (inactive). Moreover, the GI50 in assay [20] is > 10 µM (inactive); in assay [10] it was > 100 µM (inactive); in [11], > 100 µM (inactive); in assay [12], > 100 µM (inactive); in assay [13], > 100 µM (inactive); in assay [15] it was > 100 µM (inactive). Besides, the GI50 in assay [16] is > 100 µM (inactive).

On to `O=C1CSC(c2cccc([N+](=O)[O-])c2)N1c1ccc(-c2ccc(-n3c(-c4ccccc4)nc4ccccc4c3=O)cc2)cc1` (stereo not drawn), for which the GI50 in assay [1] is 23.3 µM (inactive); in assay [2], > 100 µM (inactive); in assay [3], 36.3 µM (inactive); in assay [4], > 100 µM (inactive); in [5], 32.1 µM; in [6] it was 33.4 µM (inactive). Further, the GI50 is 35.3 µM (inactive) in [17]; 24.7 µM (inactive) in [18]; 34 µM (inactive) in [7]; 36.2 µM (inactive) in assay [8]; 17.3 µM (inactive) in [19]; 17.2 µM (inactive) in [20]. For the same compound, the GI50 was 59.8 µM (inactive) in assay [10]; 37.2 µM (inactive) in assay [11]; 41.1 µM (inactive) in assay [12]; 43.6 µM (inactive) in assay [13]; 19.7 µM (inactive) in [14]; 83.2 µM (inactive) in assay [15]. The GI50 in [16] is 18.5 µM (inactive).

Consider `CCN(CC)CCN(C(=O)C(C)(C)C)c1ccccc1N`, for which the GI50 in assay [1] was > 100 µM (inactive); in [2], > 100 µM (inactive); in assay [3], > 100 µM (inactive); in [5] it was over 100 µM; in assay [6] it was > 100 µM (inactive); in assay [17], > 100 µM (inactive). In addition, the GI50 in assay [18], in assay [8], in [19], in [9], in assay [20] and in assay [10] was > 100 µM (inactive) in each case. Besides, the GI50 in assay [11], in assay [12], in assay [13], in [14], in [15] and in [16] was > 100 µM (inactive) each time.

With `CC1C(NNc2ccccc2)Oc2cc3c(cc2C1c1ccccc1O)OCO3` (stereo not drawn), the GI50 in assay [1] is 14.2 µM (inactive); in assay [2], 0.962 µM (active); in assay [3], 10.9 µM (inactive); in assay [4], 4.56 µM (inactive); in assay [5], 1.7 µM; in [6], 6.03 µM (inactive). For the same compound, the GI50 was 1.7 µM (inactive) in assay [17]; 0.444 µM (active) in assay [18]; 12.5 µM (inactive) in assay [7]; 1.93 µM (inactive) in assay [8]; 3.94 µM (inactive) in assay [19]; 4.06 µM (inactive) in assay [9]. In addition, the GI50 in assay [20] is 3.17 µM (inactive); in assay [10], 12.8 µM (inactive); in assay [12], 12.2 µM (inactive); in assay [13] it was 12.3 µM (inactive); in assay [14], 0.284 µM (active); in assay [15], 6.89 µM (inactive). The GI50 in assay [16] is 1.59 µM (inactive).

For `O=C(Nn1c(-c2cccs2)nc2ccc(I)cc2c1=O)c1ccccc1`, the GI50 was 16.4 µM (inactive) in [1]; 21.9 µM (inactive) in assay [2]; 27.8 µM (inactive) in [3]; 22 µM (inactive) in assay [4]; 30.6 µM in assay [5]; 29.8 µM (inactive) in [6]. Also, the GI50 in [17] is 20.2 µM (inactive); in assay [7], 21.4 µM (inactive); in assay [8] it was 36.3 µM (inactive); in assay [9], 43.9 µM (inactive); in [20], 41.3 µM (inactive); in assay [10], 21.2 µM (inactive). The GI50 in [11] was 31.8 µM (inactive); in assay [12], 34.4 µM (inactive); in assay [13], 24.7 µM (inactive); in [14], 23.6 µM (inactive); in [16], 28.3 µM (inactive).

`COc1ccc(C2=Nc3c(nc(OC)[nH]c3=O)NC(c3ccccc3)C2)cc1` (stereo not drawn): the GI50 in [1] is 31 µM (inactive); in assay [2], 52 µM (inactive); in assay [3] it was 33.9 µM (inactive); in assay [6] it was 28.4 µM (inactive); in assay [17], 30.1 µM (inactive); in assay [18], 25.2 µM (inactive). For the same compound, the GI50 in assay [7] is 26.6 µM (inactive); in assay [8], 27.3 µM (inactive); in assay [19] it was 21.9 µM (inactive); in assay [9], 27 µM (inactive); in [20], 38.6 µM (inactive); in assay [10] it was 29.6 µM (inactive). In addition, the GI50 in assay [11] was 24.8 µM (inactive); in assay [13], 19.1 µM (inactive); in [14] it was 53.1 µM (inactive); in [15], 49.9 µM (inactive); in assay [16] it was 46.2 µM (inactive).

For `CCOC(=O)/C(C#N)=C/c1ccnc2ccccc12`, the GI50 was 50.5 µM (inactive) in assay [1]; > 100 µM (inactive) in assay [2]; > 100 µM (inactive) in assay [3]; > 100 µM (inactive) in [4]; 31.9 µM in assay [5]; > 100 µM (inactive) in assay [6]. In addition, the GI50 in [17] is 40.2 µM (inactive); in assay [7], 15.6 µM (inactive); in assay [8], 56.9 µM (inactive); in [9] it was > 100 µM (inactive); in [20], 63.5 µM (inactive); in assay [10], 31.8 µM (inactive). Also, the GI50 in assay [11] is 13.5 µM (inactive); in assay [12], > 100 µM (inactive); in [13], 88.5 µM (inactive); in assay [14] it was 2.28 µM (inactive); in [15] it was > 100 µM (inactive).

For `CC(C)CC(NC(=O)OCc1ccccc1)C(=O)NCCCCC(NC(=O)C(CCCCNC(=O)C(CC(C)C)NC(=O)OCc1ccccc1)NC(=O)C(CCCCNC(=O)C(CC(C)C)NC(=O)OCc1ccccc1)NC(=O)C(CCCCNC(=O)C(CC(C)C)NC(=O)OCc1ccccc1)NC(=O)OC(C)(C)C)C(=O)O` (stereo not drawn) (Boc-K([Leu-Cbz])K([Leu-Cbz])K([Leu-Cbz])K([Leu-Cbz])-OH; configuration not given here), the GI50 is > 25 µM (inactive) in [1]; > 25 µM (inactive) in assay [2]; > 25 µM (inactive) in [4]; over 25 µM in assay [5]; > 25 µM (inactive) in assay [6]; > 25 µM (inactive) in assay [17]. Besides, the GI50 in assay [18], in assay [7], in assay [8], in assay [19], in [9] and in [20] was > 25 µM (inactive) in each case. For the same compound, the GI50 in assay [10], in assay [12], in [13], in assay [14], in assay [15] and in assay [16] was > 25 µM (inactive) throughout.

For `N#Cc1c2c(c(Nc3ccc(Cl)cc3)n3c1nc1ccccc13)CCCC2`, the GI50 in assay [1] was > 70.1 µM (inactive); in assay [2] it was 36.5 µM (inactive); in [3], 48.3 µM (inactive); in [4] it was 32.9 µM (inactive); in assay [5] it was 25.9 µM; in assay [6], 18.5 µM (inactive). Further, the GI50 in [17] is 47.4 µM (inactive); in assay [18], 4.46 µM (inactive); in [7] it was > 63.5 µM (inactive); in [8] it was > 83.2 µM (inactive); in assay [19], 7.59 µM (inactive); in assay [20] it was 3.18 µM (inactive). Besides, the GI50 was > 71.3 µM (inactive) in assay [10]; 44.1 µM (inactive) in [11]; 44 µM (inactive) in assay [12]; > 76 µM (inactive) in [13]; 17 µM (inactive) in assay [14]; 48 µM (inactive) in assay [15]. Further, the GI50 in assay [16] is > 51.2 µM (inactive).

Take `Cn1c2ccccc2n2c3ncccc3c(=O)c(C#N)c12`: the GI50 in assay [1] is 16.5 µM (inactive); in assay [2] it was 5.31 µM (inactive); in assay [3], 32.8 µM (inactive); in assay [4], 21.5 µM (inactive); in [5], 6.18 µM; in assay [6] it was 5.51 µM (inactive). Further, the GI50 is 5.32 µM (inactive) in assay [17]; > 100 µM (inactive) in assay [18]; 5.96 µM (inactive) in [7]; 32.3 µM (inactive) in assay [8]; 3.81 µM (inactive) in assay [19]; 3.04 µM (inactive) in assay [20]. The GI50 in assay [10] was 10.2 µM (inactive); in assay [11], 16.3 µM (inactive); in assay [12], 18 µM (inactive); in [13] it was 44.2 µM (inactive); in assay [14], 3.73 µM (inactive); in [15], 26.5 µM (inactive). Moreover, in assay [16], the GI50 is 5.62 µM (inactive).
